# Laboratory results from PMC12563821 (International Journal of Molecular Sciences, 2025).
# Read-outs that look alike come from different tables or passages of the source.
# Assays:
# Sirt2 = biological target: T1, Sirt2 (Homo sapiens, UniProt Q8IXJ6); assay: Fluorescence-based Sirt2 deacetylase inhibition assay (Reaction Biology); assay type: biochemical; details: for IC50: fluorescence-based assay
# T1 construct: comprising amino acids 50–389 (C-terminal); His-tag (N); purchased Reaction Biology Corporation (Malvern, PA, USA), in-house enzyme of the contract laboratory; host or cells: E. coli
# T1 sequence (Q8IXJ6 50-389): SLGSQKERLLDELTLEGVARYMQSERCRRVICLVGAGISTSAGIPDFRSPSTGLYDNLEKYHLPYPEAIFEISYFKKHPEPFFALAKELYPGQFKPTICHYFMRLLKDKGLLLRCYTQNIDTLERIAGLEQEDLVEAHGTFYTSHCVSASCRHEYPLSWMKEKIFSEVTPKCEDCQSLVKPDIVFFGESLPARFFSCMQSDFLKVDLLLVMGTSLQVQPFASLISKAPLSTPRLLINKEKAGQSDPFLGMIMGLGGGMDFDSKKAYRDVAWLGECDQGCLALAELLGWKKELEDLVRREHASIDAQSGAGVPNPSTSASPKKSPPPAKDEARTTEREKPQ
# Method: (§1) The determination of the inhibitory potency and corresponding subtype selectivity of the synthesized hybrid candidates was performed by Reaction Biology Cooperation (Malvern, PA, USA) using a fluorescence-based assay (Table 1).
# Sirtuin assays. The biological activity of the test substances against the respective sirtuin enzymes was evaluated by means of a fluorescence-based assay performed by Reaction Biology Corporation (Malvern, PA, USA). The sirtuin enzymes used in the assays were all obtained from in-house sources at Reaction Biology Corporation (Malvern, PA, USA). […] Sirt2 is provided in a buffer containing 50 mM Tris/HCl (pH 7.5), 500 mM NaCl, 1 mM TCEP, and 10% glycerol (v/v). […] Sirt3 is supplied in 50 mM Tris/HCl (pH 7.5), 500 mM NaCl, and 10% glycerol (v/v). […] All proteins were provided in purified forms for use in the assays. […] After 2 h of incubation at 30 °C, the universal inhibitor nicotinamide was added in excess to completely stop the deacetylation reaction, followed by the addition of a protease-based developer to release 7-amino-4-methylcoumarin, resulting in characteristic fluorescence, which was measured after 1 h at 30 °C (excitation/emission = 360/460). A no-inhibitor control was implemented, serving as a reference for 100% enzyme activity. […] Three individual IC50 values per test compound were calculated from the corresponding three dilution series fluorescence data using sigmoidal curve fitting in Prism 8.0.2 (GraphPad Software, Boston, MA, USA), and these were averaged to determine the mean IC50 value along with the standard deviation. To assess the selectivity against Sirt1, Sirt3, and Sirt5, a 50 µM concentration of the test compound was tested in duplicate, and the inhibitory activity was expressed as the mean of the duplicates in percentage of enzyme activity, including standard deviation, relative to the no-inhibitor control (representative 100% enzyme activity).
# Sirt3 = test system: T2, Sirt3; assay: Fluorescence-based Sirt3 subtype selectivity assay (Reaction Biology); assay type: biochemical; details: 50 µM inhibitor, duplicate, relative to no-inhibitor control
# T2 construct: spans amino acids 101–399; GST (N); purchased Reaction Biology Corporation (Malvern, PA, USA), in-house enzyme of the contract laboratory; host or cells: E. coli
# Method: as §1
# (§2) Sirtuin assays. The biological activity of the test substances against the respective sirtuin enzymes was evaluated by means of a fluorescence-based assay performed by Reaction Biology Corporation (Malvern, PA, USA). The sirtuin enzymes used in the assays were all obtained from in-house sources at Reaction Biology Corporation (Malvern, PA, USA). Sirt1, with accession number NM_012238, includes amino acids 1–747 (C-terminal) and is tagged with an N-terminal His-tag. Sirt1 was expressed in E. coli and purified to greater than 85% as confirmed by SDS-PAGE and is supplied as a solution in 50 mM Tris/HCl (pH 7.5), 100 mM NaCl, and 10% glycerol (v/v). Sirt2 (accession number NM_012237), comprising amino acids 50–389 (C-terminal), features an N-terminal His-tag and was expressed in E. coli and finally purified to over 90% by SDS-PAGE. Sirt2 is provided in a buffer containing 50 mM Tris/HCl (pH 7.5), 500 mM NaCl, 1 mM TCEP, and 10% glycerol (v/v). Sirt3, with accession number NM_012239.3, spans amino acids 101–399 and is tagged with an N-terminal GST and expressed in E. coli and purified to greater than 85% purity by SDS-PAGE. Sirt3 is supplied in 50 mM Tris/HCl (pH 7.5), 500 mM NaCl, and 10% glycerol (v/v). Sirt5 (accession number NM_012241), consisting of amino acids 37–310 (C-terminal) and tagged with an N-terminal His-tag, was expressed in E. coli, purified to greater than 95% purity by SDS-PAGE and delivered as a solution in 50 mM Tris/HCl (pH 7.5), 500 mM NaCl, 1 mM TCEP, and 10% glycerol (v/v). All proteins were provided in purified forms for use in the assays. The respective internal assay protocol is outlined in the following: After the test substances (dissolved in DMSO) were incubated with the desired sirtuin enzyme in assay buffer (Tris-HCl, pH = 8) for 10 min at 30 °C, a substrate mixture consisting of a 7-amino-4-methylcoumarin-linked fluorogenic peptide substrate (p53 residues 379–382) and the cofactor NAD^+ was added. After 2 h of incubation at 30 °C, the universal inhibitor nicotinamide was added in excess to completely stop the deacetylation reaction, followed by the addition of a protease-based developer to release 7-amino-4-methylcoumarin, resulting in characteristic fluorescence, which was measured after 1 h at 30 °C (excitation/emission = 360/460). A no-inhibitor control was implemented, serving as a reference for 100% enzyme activity. […] Three individual IC50 values per test compound were calculated from the corresponding three dilution series fluorescence data using sigmoidal curve fitting in Prism 8.0.2 (GraphPad Software, Boston, MA, USA), and these were averaged to determine the mean IC50 value along with the standard deviation. To assess the selectivity against Sirt1, Sirt3, and Sirt5, a 50 µM concentration of the test compound was tested in duplicate, and the inhibitory activity was expressed as the mean of the duplicates in percentage of enzyme activity, including standard deviation, relative to the no-inhibitor control (representative 100% enzyme activity).
# Sirt1 = test system: T3, Sirt1; assay: Fluorescence-based Sirt1 subtype selectivity assay (Reaction Biology); assay type: biochemical; details: 50 µM inhibitor, duplicate, relative to no-inhibitor control
# T3 construct: includes amino acids 1–747 (C-terminal); His-tag (N); purchased Reaction Biology Corporation (Malvern, PA, USA), in-house enzyme of the contract laboratory; host or cells: E. coli
# Method: as §1, §2
# [1] = MTT-based cell viability assay; parameters: species or system human; details: human; HL-60 cells, 24 h incubation, MTT; read-out: IC50 acute cytotoxicity
# Method: (§3) The SirReal-based Sirt2 inhibitors (FM345, FM352, FM358, FM368, RW-93, RW-95 and RW-99) were tested for potential acute cytotoxicity to human cells in an MTT-based cell viability assay. […] HL-60 cells were treated with the corresponding Sirt2 inhibitors at various concentrations and then incubated for 24 h. […] Representative cell viability results following treatment with RW-93 are shown in Figure S1 of the Supplementary Materials.
# (§4) Cell viability assay. The cytotoxicity of the Sirt2 inhibitors was determined using a colorimetric MTT assay following Mosmann’s protocol. HL-60 cells (purchased from DSMZ (German Collection of Microorganisms and Cell Cultures, Deutsche Sammlung von Mikroorganismen und Zellkulturen GmbH, Braunschweig, Germany) were cultivated in RPMI medium with 10% fetal bovine serum at 37 °C with 5% CO2 atmosphere. The cells were then seeded in a 96-well plate with a concentration of 9 x 10^4 cells/well and a well volume of 99 µL. The cells were further incubated at 37 °C with 5% CO2 atmosphere for 24 h. The cells were then treated with 1 µL solution of Sirt2 inhibitors in various concentrations, which were prepared from 10 mM or 20 mM DMSO stock solutions. Negative controls were treated with 1 µL DMSO and positive controls with 1 µL of 1% Triton-X solution. Three technical replicates were performed. After incubation for 24 h, 10 µL MTT (5.0 mg/mL in PBS) were added to each well and the cells were incubated at 37 °C with 5% CO2 atmosphere for 2 h. Then 190 µL DMSO were added to each well and the plate shaken at room temperature at 600 rpm for 1 h with light exclusion. The absorbance of the MTT metabolite formazan was measured at 570 nm using the MRX Microplate Reader (Dynex Technologies, Chantilly, VA, USA). The means of the corresponding triplicates were calculated and set in relation to the 1% DMSO negative controls. The data was processed using Prism 8.0.2 (GraphPad Software, Boston, MA, USA) software and a logarithmic sigmoidal curve fitting for the calculation of the respective IC50 values was performed.
# Sirt5 = test system: T4, Sirt5; assay: Fluorescence-based Sirt5 subtype selectivity assay (Reaction Biology); assay type: biochemical; details: 50 µM inhibitor, duplicate, relative to no-inhibitor control
# T4 construct: consisting of amino acids 37–310 (C-terminal); His-tag (N); purchased Reaction Biology Corporation (Malvern, PA, USA), in-house enzyme of the contract laboratory; host or cells: E. coli
# Method: as §1, §2
# HL-60 cells = assay: MTT-based cell viability assay; parameters: species or system human
# Method: as §3, §4
# HL-60 cell line = test system: HL-60 cell line; parameters: method as in PMID 35441145; details: cited from earlier work
# [2] = rounded values, read-out: IC50 Sirt2
# [3] = mean ± SD of three dilution series, read-out: IC50 [µM] ± SD Sirt2
Compound,IC50 (Sirt2; [2]) [µM],IC50 (Sirt2; [3]) [µM],Residual Enzyme Activity [%] ± SD Sirt3 (Sirt3) [%],Residual Enzyme Activity [%] ± SD Sirt1 (Sirt1) [%],IC50 at 24 h [1] [nM],Residual Enzyme Activity [%] ± SD Sirt5 (Sirt5) [%],stronger Sirt2 inhibition compared to lead compound Yang_24a (fold) (Sirt2; ratio of Sirt2 IC50 values),"selectivity towards related subtypes Sirt1, Sirt3 and Sirt5 (Sirt2; Sirt2 versus Sirt1, Sirt3, Sirt5)",outperforms lead compound SirReal2 by a factor (Sirt2; ratio of Sirt2 IC50 values),times more potent than hybrid precursor FM358 (Sirt2; ratio of Sirt2 IC50 values),"changes in cell viability relative to DMSO control (HL-60 cells; HL-60 cells, MTT, up to 200 µM, three technical replicates)",acute toxicity to human cells (HL-60 cells; MTT assay),toxicity in HL-60 cell line (HL-60 cell line)
"Cc1cc(C)nc(SCC(=O)Nc2ncc(COc3ccccc3)s2)n1 [FM345, 2-((4,6-Dimethylpyrimidin-2-yl)thio)-N-(5-(phenoxymethyl)thiazol-2-yl)acetamide]",5.3,5.29 ± 0.73,78.8 ± 0.8,95.6 ± 2.3,> 50000,94.6 ± 2.3,–,–,–,–,–,–,–
"Cc1cc(C)nc(SCC(=O)Nc2ncc(COc3ccc(NC(=O)c4cccs4)cc3)s2)n1 [FM352, N-(4-((2-(2-((4,6-Dimethylpyrimidin-2-yl)thio)acetamido)thiazol-5-yl)methoxy)phenyl)thiophene-2-carboxamide]",0.094,0.0935 ± 0.0064,75.8 ± 5.3,101 ± 1,> 50000,75.6 ± 1.1,–,–,–,–,–,–,–
"Cc1cc(C)nc(SCC(=O)Nc2ncc(COc3ccc(NC(=O)c4cnn(C)c4)cc3)s2)n1 [FM358, N-(4-((2-(2-((4,6-Dimethylpyrimidin-2-yl)thio)acetamido)thiazol-5-yl)methoxy)-phenyl)-1-methyl-1H-pyrazole-4-carboxamide]",0.066,0.0656 ± 0.0044,62.5 ± 0.1,71.9 ± 0.6,> 50000,79.8 ± 0.6,1.2,–,–,–,–,–,–
"Cc1cc(C)nc(SCC(=O)Nc2ncc(COc3cccc4ccccc34)s2)n1 [FM368, 2-((4,6-Dimethylpyrimidin-2-yl)thio)-N-(5-((naphthalen-1-yloxy)methyl)thiazol-2-yl)acetamide]",6.5,6.51 ± 0.84,85.0 ± 0.5,88.5 ± 2.7,> 50000,89.1 ± 1.4,–,–,–,–,–,–,–
"Cc1cc(C)nc(SCC(=O)Nc2ncc(COc3ccc(NC(=O)c4cnn(C)c4)c(Br)c3)s2)n1 [RW-93, N-(2-Bromo-4-((2-(2-((4,6-dimethylpyrimidin-2-yl)thio)acetamido)thiazol-5-yl)-methoxy)phenyl)-1-methyl-1H-pyrazole-4-carboxamide]",0.016,0.0155 ± 0.0007,62.3 ± 1.2,58.2 ± 0.2,> 50000,53.0 ± 0.2,5,more than 3000 fold,15,more than 4,No signiﬁcant changes,ruled out,–
"Cc1cc(C)nc(SCC(=O)Nc2ncc(COc3ccc(NC(=O)c4cnn(C)c4)c(I)c3)s2)n1 [RW-95, N-(4-((2-(2-((4,6-Dimethylpyrimidin-2-yl)thio)acetamido)thiazol-5-yl)methoxy)-2-iodophenyl)-1-methyl-1H-pyrazole-4-carboxamide]",0.049,0.0485 ± 0.0056,64.2 ± 1.2,60.9 ± 0.7,> 50000,48.2 ± 1.8,–,–,–,–,–,–,–
"Cc1cc(C)nc(SCC(=O)Nc2ncc(COc3ccc(NC(=O)c4cnn(C)c4)c(Cl)c3)s2)n1 [RW-99, N-(2-Chloro-4-((2-(2-((4,6-dimethylpyrimidin-2-yl)thio)acetamido)thiazol-5-yl)methoxy)phenyl)-1-methyl-1H-pyrazole-4-carboxamide]",–,0.025 ± 0.0026,56.1 ± 0.1,53.9 ± 0.2,> 50000,55.1 ± 2.0,–,–,–,–,–,–,–
Cc1cc(C)nc(SCC(=O)Nc2ncc(Cc3cccc4ccccc34)s2)n1 [SirReal2],–,–,–,–,–,–,–,–,–,–,–,–,not toxic
